Data: US20260193311A1, “METHODS AND COMPOSITIONS FOR STIMULATION OF CHIMERIC ANTIGEN RECEPTOR T CELLS WITH HAPTEN LABELLED CELLS” (Seattle Children's Hospital (dba Seattle Children's …, priority 2018, published 2026)

What was measured:
CD19+ Raji cells = experiment: flow cytometry for presence of FL on hapten-labeled cells; type: cell-based
Procedure: Hapten-labeled cells were prepared by either attaching the hapten, fluorescein (FL), to the cells via an integrated phospholipid or via an antibody. CD19+ Raji cells (lymphoma cell line) were incubated either overnight with 5 μM FL-DHPE (FIG. 3B), or for 20 min with an antiCD19 antibody labeled with fluorescein isothiocyanate (FITC). The cells were washed, stained, and analyzed by flow cytometry for the presence of FL. […] The levels of FL were higher for cells treated with FL-DHPE compared to cells treated with the antiCD19 antibody (FIG. 4A). This was consistent with different tethering techniques providing different levels of hapten on the surface of a cell.

[1] = test system: CD19+K562 cells (hapten-labeled); experiment: cytokine release assay of antiFL CAR T cells against hapten-labelled cells; type: cell-based; conditions: target cells prepared with 5 μM FL-DHPE
Procedure: Hapten-labeled cells were prepared. CD19^+K562 cells were incubated either overnight with 5 μM FL-DHPE or for 20 min with an CD19 antibody labeled with FITC. The hapten-labeled cells were incubated with either one of two antiFL CAR T cells (FITC-E2 scFv, or 4M5.3 scFv). […] Hudecek M, et al., (2013) Clin Cancer Res. 19:3153-64, which is incorporated by reference in its entirety.
The levels of cytokines released by the antiFL CAR T cells were determined. […] The levels of released IFN-7, and TNF-α were lower for hapten-labeled cells contacted with the antiFL(4M5.3) CART cell. Also, there was a trend for hapten-labeled cells prepared with FL-DHPE inducing higher levels of cytokine release compared to hapten-labeled cells prepared with an CD19 antibody labeled with FITC.

Compound: CCCCCCCCCCCCCCCC(=O)OCC(COP(=O)(O)OCCNC(=S)Nc1ccc2c(c1)C(=O)OC21c2ccc(O)cc2Oc2cc(O)ccc21)OC(=O)CCCCCCCCCCCCCCC (stereo not drawn) [FL-DHPE, N-(Fluorescein-5-Thiocarbamoyl)-1,2-Dihexadecanoyl-sn-Glycero-3-Phosphoethanolamine]
- presence of FL, shift compared to untreated control cells (CD19+ Raji cells; 5 μM FL-DHPE overnight): positive shift
- levels of FL compared to cells treated with the antiCD19 antibody (CD19+ Raji cells; 5 μM FL-DHPE overnight vs antibody 20 min): higher
- cytokine release compared to hapten-labeled cells prepared with CD19 antibody labeled with FITC (trend) [1]: higher levels
